Laboratory results reported in patent EP2719696A1, “NOVEL KINASE INHIBITORS” (Asinex Limited, priority 2011, dated 2012).
Read-outs that look alike come from different tables or passages of the source.

Key:
[1] = In vivo PK study, determination of brain-to-plasma ratio; details: mouse, SHK mice, PO dosing 5mg/kg, 20% water solution of HPβCD, read-out: brain-to-plasma concentration ratio
Description: Male SHK mice (22-25 g) were dosed with 5 mg/kg of related compounds as a single injection via oral gavage (formulated in 20% water solution of HPβCD). Blood samples and whole brains were collected from three mice at each of eight collection time points of 0.05, 0.25, 0.5, 1, 2, 4, 8 and 24 h post dose. Plasma was collected from blood samples, and whole brain samples were homogenized in three volumes of water. Both tissues were analyzed for concentrations of related compounds by liquid chromatography-mass spectrometry (LC-MS/MS). Table 9. brain-to-plasma concentration ratios in SHK mice after PO dosing 5mg/kg for several selected examples

VEGFR-2 = VEGFR-2 (Homo sapiens, UniProt P35968); test: Kinase inhibition assay (ELISA); type: biochemical; details: 1.5 µM ATP
Description: (§1) To determine the interaction of our compounds with tyrosine kinases: PDGFR-α, cKIT, PDGFR-β, VEGFR-2 we used enzyme-linked immunosorbent assay (ELISA).
(§2) Determination plates preparation: The plates are processed by neutravidine for 2 h at 30°C. After washing thrice with TBS/0.1% Tween-20 and blocking with 1% BSA/TBS for 1 h at room temperature (RT) 96-well microtiter plates were washed thrice with TBS/0.1% Tween-20 again.
(§3) Reaction: After addition test compounds (in DMSO, DMSO final concentration - 5%) to reaction buffer (20 mM HEPES, pH 7.5, 15 mM MgCl2, 3 mM MnCl2, 2 mM DTT, 0.2 mM Na3VO4, 0.005% Triton X-100; PDGFR-α,: 0.05 µg/ml, 0.5 µg/ml Poly(G,T)-biotin; PDGFR-β: 0.05 µg/ml, 1 µg/ml Poly(G,T)-biotin; c-KIT: 0.03 µg/ml, 0.15 µg/ml Poly(G,T)-biotin; VEGFR-2: 0.07 µg/ml, 0.05 µg/ml Poly(G,T)-biotin) and preincubation of reaction for 10 min at RT and intensive agitation, ATP solution (PDGFR-α, - 1 µM, PDGFR-β - 0.5 µM, c-KIT - 60 µM, VEGFR-2: - 1.5 µM ATP in reaction buffer per well) was added to initiate reaction. Following incubation of mixture for 1 h at 30°C and intensive agitation the reaction was stopped by stop solution (20 mM HEPES, pH 7.5, 50 mM EDTA).
(§4) Kinase activity determination: The reaction mixture was transferred to determination plate. After mix incubation for 1 h at RT and intensive agitation the plates were washed thrice with TBS/0.1% Tween-20. Following mouse monoclonal 0.05 µg/ml Anti-p-Tyr (PY20) HRP antibodies (Santa Cruz Biotechnology) in PBS/BSA were added for 1 h at RT and intensive agitation. After washing, antibody binding was detected by tetramethylbenzidine (TMB) color development (Sigma). Measurement of A450 nm was carried out after addition of H2SO4

PDGFR-α = PDGFR-α (Homo sapiens, UniProt P16234); test: Kinase inhibition assay (ELISA); type: biochemical; details: 1 µM ATP
Description: as §1, §2, §3, §4

cKIT = cKIT (Homo sapiens, UniProt P10721); test: Kinase inhibition assay (ELISA); type: biochemical; details: 60 µM ATP
Description: as §1, §2, §3, §4

A2780 = test: MTT proliferation / cytotoxicity assay; type: cell-based, human; details: Homo sapiens, A2780, 72 h
Description: (§5) Cell culture. The human cancer cell lines A172, A375, A2780 and U251 were purchased from the American Type Culture Collection. All cells were routinely maintained in DMEM containing 10% fetal bovine serum (Omega Scientific), at 37°C in 5% C02.
(§6) Proliferation assay Inhibition of cell A172, A375, A2780 and U251 cell proliferation was assessed by a MTT assay (MTT = Thiazolyl Blue Tetrazolium Bromide) . Cells were inoculated into 96-well microtiter plates containing 0.5% fetal calf serum and incubated at 37°C, 5% CO2, 95% air, and 100% relative humidity for 24 h prior to addition of testing compounds. Following compounds addition, the plates were incubated for an additional 72 h before processing to measure the cell population. Each compound was tested at eight different concentrations in triplicate, as was a control sample. Growth inhibition of 50% (IC50) is calculated by analysis of the data in Prizm3.4 software.
(§7) Table 8 lists IC50 values for inhibition of growth of several cancer cell lines, including the glioblastoma cell lines A172 and U251, measured in a MTT cytotoxicity assay. Table 8. Data of cytotoxicity assay (MTT) for several cancer cell lines, IC50 [µM]

A375 = test: MTT proliferation / cytotoxicity assay; type: cell-based, human; details: Homo sapiens, A-375, 72 h
Description: as §5, §6, §7

A172 = test: MTT proliferation / cytotoxicity assay; type: cell-based, human; details: Homo sapiens, A 172, 72 h, glioblastoma cell line
Description: as §5, §6, §7

U251 = test: MTT proliferation / cytotoxicity assay; type: cell-based, human; details: Homo sapiens, U-251, 72 h, glioblastoma cell line
Description: as §5, §6, §7

VEGFR-2, sequence (P35968 20-1356, species assumed): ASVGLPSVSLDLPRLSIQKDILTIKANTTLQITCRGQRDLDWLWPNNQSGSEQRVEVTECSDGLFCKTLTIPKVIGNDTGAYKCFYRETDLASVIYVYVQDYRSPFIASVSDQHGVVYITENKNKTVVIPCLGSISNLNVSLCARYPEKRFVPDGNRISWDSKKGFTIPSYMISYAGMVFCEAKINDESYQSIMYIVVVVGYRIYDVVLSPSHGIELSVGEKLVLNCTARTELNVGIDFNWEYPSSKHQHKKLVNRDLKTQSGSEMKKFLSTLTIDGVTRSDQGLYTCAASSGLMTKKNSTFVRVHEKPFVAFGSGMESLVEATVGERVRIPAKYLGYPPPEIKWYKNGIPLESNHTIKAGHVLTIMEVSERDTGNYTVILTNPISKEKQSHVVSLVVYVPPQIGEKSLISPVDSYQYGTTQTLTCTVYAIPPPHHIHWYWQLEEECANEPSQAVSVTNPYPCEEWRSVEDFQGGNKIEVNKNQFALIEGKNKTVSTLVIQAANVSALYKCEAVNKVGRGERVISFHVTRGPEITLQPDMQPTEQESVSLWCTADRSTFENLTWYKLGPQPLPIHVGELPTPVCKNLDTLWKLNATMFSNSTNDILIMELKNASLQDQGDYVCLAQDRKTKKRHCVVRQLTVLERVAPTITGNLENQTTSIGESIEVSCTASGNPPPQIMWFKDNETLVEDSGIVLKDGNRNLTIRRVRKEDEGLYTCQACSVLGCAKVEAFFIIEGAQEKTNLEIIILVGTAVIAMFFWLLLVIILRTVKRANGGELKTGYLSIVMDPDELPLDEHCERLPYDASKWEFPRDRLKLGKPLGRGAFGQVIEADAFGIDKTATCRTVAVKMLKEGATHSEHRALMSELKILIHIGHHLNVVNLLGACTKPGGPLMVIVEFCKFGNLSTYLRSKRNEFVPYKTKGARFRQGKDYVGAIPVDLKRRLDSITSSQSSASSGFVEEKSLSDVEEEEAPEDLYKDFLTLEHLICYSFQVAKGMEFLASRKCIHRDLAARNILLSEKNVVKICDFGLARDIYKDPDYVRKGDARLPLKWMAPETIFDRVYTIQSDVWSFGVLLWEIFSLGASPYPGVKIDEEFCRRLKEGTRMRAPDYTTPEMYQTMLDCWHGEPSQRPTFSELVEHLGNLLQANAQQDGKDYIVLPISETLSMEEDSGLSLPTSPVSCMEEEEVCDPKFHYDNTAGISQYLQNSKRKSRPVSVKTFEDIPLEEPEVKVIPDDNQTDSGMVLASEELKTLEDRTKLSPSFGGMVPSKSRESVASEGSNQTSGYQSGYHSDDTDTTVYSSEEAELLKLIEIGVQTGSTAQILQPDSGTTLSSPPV
cKIT, sequence (P10721 26-976): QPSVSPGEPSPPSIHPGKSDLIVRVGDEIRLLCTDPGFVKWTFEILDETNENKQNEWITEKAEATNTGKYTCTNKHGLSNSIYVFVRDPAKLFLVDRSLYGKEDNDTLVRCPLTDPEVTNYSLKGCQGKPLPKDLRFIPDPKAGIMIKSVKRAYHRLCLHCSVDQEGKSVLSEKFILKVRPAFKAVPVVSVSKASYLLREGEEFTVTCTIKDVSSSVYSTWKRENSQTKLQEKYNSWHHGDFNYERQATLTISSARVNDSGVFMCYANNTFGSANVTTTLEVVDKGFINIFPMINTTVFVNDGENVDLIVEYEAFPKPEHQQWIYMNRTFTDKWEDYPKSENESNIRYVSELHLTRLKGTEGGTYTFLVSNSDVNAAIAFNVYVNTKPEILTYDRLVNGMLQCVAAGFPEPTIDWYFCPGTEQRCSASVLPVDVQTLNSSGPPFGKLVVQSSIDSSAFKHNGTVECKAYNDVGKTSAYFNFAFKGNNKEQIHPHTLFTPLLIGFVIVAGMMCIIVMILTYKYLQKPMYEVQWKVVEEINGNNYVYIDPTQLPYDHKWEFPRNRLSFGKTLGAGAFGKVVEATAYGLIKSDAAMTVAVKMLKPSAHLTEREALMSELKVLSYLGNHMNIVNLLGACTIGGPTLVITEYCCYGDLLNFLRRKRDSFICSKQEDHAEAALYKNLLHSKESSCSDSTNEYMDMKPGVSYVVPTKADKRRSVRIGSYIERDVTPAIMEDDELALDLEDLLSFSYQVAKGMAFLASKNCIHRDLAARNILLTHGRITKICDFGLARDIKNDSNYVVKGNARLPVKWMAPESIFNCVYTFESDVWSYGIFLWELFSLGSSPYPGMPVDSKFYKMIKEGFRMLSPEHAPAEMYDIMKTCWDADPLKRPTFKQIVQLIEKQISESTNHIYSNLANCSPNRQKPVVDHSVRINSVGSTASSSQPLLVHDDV
PDGFR-α, sequence (P16234 24-1089, species assumed): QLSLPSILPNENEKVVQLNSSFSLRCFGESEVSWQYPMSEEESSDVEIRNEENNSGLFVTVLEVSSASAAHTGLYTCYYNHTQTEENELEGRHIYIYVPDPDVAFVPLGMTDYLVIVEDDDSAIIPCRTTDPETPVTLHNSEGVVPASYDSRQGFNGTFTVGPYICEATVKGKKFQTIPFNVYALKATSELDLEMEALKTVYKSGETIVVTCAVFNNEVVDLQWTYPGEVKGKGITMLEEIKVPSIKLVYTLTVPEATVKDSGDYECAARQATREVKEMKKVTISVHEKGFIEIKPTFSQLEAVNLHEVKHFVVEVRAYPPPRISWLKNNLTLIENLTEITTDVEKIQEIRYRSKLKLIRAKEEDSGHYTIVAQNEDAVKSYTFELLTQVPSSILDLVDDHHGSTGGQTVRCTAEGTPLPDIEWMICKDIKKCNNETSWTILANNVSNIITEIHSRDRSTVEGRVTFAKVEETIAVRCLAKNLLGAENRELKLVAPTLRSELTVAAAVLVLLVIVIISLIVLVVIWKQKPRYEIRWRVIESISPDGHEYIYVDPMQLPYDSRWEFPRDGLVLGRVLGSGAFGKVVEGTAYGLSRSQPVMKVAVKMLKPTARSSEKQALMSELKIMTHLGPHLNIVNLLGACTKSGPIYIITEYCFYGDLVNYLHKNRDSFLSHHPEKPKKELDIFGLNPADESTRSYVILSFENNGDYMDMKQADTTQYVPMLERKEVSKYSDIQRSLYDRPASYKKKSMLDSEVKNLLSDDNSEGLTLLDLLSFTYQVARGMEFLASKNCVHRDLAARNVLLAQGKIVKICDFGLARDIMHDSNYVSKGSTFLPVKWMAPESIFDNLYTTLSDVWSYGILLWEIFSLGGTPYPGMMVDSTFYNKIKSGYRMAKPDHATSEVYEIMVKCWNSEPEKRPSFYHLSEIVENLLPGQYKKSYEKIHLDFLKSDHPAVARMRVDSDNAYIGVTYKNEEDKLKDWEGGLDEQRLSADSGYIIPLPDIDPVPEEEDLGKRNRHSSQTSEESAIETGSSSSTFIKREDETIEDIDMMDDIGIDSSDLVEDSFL

SMILES	Kp ([1]; male, brain/plasma)	IC50 (VEGFR-2)	IC50 (PDGFR-α)	IC50 (cKIT)	IC50 (A2780)	IC50 (A375)	IC50 (A172)	IC50 (U251)	Kp ([1]; brain)
OCCN1CCC(Cc2ccnc(Nc3ncc(-c4ccc(F)cc4)s3)c2)CC1 [Example 003, 2-(4-{2-[5-(4-Fluoro-phenyl)-thiazol-2-ylamino]-pyridin-4-ylmethyl}-piperidin-1-yl)-ethanol]	3.66	> 10 nM	< 10 nM	> 10 nM	> 1 µM	> 1 µM	≤ 1 µM	> 10 µM	–
Fc1ccc(-c2cnc(Nc3cc(CC4CNCCOC4)ccn3)s2)cc1 (centres unmarked) [Example 009, [5-(4-Fluoro-phenyl)-thiazol-2-yl]-(4-[1,4]oxazepan-6-ylmethyl-pyridin-2-yl)-amine]	10.3	> 10 nM	< 10 nM	< 10 nM	> 1 µM	> 1 µM	> 10 µM	> 10 µM	–
OCCN1CCOCC(Cc2ccnc(Nc3ncc(-c4ccc(F)cc4)s3)c2)C1 (centres unmarked) [Example 011, 2-(6-{2-[5-(4-Fluoro-phenyl)-thiazol-2-ylamino]-pyridin-4-ylmethyl}-[1,4]oxazepan-4-yl)-ethanol]	12.7	> 10 nM	< 10 nM	> 10 nM	> 1 µM	> 1 µM	> 1 µM	> 10 µM	–
OCCN1CCC(c2ccnc(Nc3ncc(-c4ccc(F)cc4)s3)c2)CC1 [Example 035]	–	< 10 nM	< 10 nM	< 10 nM	> 1 µM	> 1 µM	> 1 µM	> 1 µM	18.5

Further lines, with some results ahead:

Kp ([1]; male, brain/plasma)	IC50 (VEGFR-2)	IC50 (PDGFR-α)	IC50 (cKIT)	SMILES	IC50 (A2780)	IC50 (A375)	IC50 (A172)	IC50 (U251)	Kp ([1]; brain)
0.59	> 1000 nM	> 100 nM	> 10 nM	Fc1ccc(-c2cnc(Nc3cccc(CC4CNCCOC4)n3)s2)cc1 (centres unmarked) [Example 013, [5-(4-Fluoro-phenyl)-thiazol-2-yl]-(6-[1,4]oxazepan-6-ylmethyl-pyridin-2-yl)-amine]	< 1 µM	≤ 1 µM	> 1 µM	> 1 µM	–
0.96	> 10 nM	< 10 nM	< 10 nM	Fc1ccc(-c2cnc(Nc3cc(CC4CNCCNC4)ccn3)s2)cc1 [Example 019, (4-[1,4]Diazepan-6-ylmethyl-pyridin-2-yl)-[5-(4-fluoro-phenyl)-thiazol-2-yl]-amine]	> 1 µM	> 1 µM	> 10 µM	> 10 µM	–
0.81	> 10 nM	< 10 nM	> 10 nM	Cc1nc(Nc2ncc(-c3ccccc3)s2)cc(C2CCN(CCO)CC2)n1 [Example 032, 2-{4-[2-Methyl-6-(5-phenyl-thiazol-2-ylamino)-pyrimidin-4-yl]-piperidin-1-yl}-ethanol]	≤ 1 µM	–	> 1 µM	> 10 µM	–
1.38	> 100 nM	> 100 nM	> 100 nM	OCCN1CCC(c2ccnc(Nc3ncc(CC(F)(F)F)s3)c2)CC1 [Example 040, 2-{2'-[5-(2,2,2-Trifluoro-ethyl)-thiazol-2-ylamino]-3,4,5,6-tetrahydro-2H-[4,4']bipyridinyl-1-yl}-ethanol]	> 10 µM	> 1 µM	≤ 1 µM	> 10 µM	–
0.19	> 100 nM	< 10 nM	> 10 nM	O=C(Nc1ccccc1Cl)c1cnc(Nc2cc(C3CCN(CCO)CC3)ccn2)s1 [Example 044, 2-[1'-{2-Hydroxy-ethyl)-1',2',3',4',5',6' -hexahydro-[4,4']bipyridinyl-2-ylamino]-thiazole-5-carboxylic acid (2-chlorophenyl)-amide]	–	> 1 µM	–	–	–
